From ChEMBL document CHEMBL1129995, “N-[2-[(substituted chroman-8-yl)oxy]ethyl]-4-(4-methoxyphenyl)butylamines: synthesis and wide range of antagonism at the human 5-HT1A receptor” (J Med Chem, 1997) come the findings set out here.

In experiment [1] the target is T1, 5-hydroxytryptamine receptor 1A (Rattus norvegicus, UniProt P19327).
T1 sequence (P19327 whole entry): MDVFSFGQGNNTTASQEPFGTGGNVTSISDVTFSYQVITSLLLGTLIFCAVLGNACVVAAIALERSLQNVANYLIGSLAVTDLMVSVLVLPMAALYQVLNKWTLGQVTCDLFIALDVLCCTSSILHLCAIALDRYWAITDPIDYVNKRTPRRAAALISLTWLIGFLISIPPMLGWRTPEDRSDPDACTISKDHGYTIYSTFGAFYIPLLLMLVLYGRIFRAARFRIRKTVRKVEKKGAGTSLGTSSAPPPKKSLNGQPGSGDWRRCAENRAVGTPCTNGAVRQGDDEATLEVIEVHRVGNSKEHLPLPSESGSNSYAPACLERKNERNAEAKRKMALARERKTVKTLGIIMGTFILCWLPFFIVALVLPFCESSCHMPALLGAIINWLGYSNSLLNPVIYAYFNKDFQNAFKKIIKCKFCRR
As to the kind of experiment: Displacement of [3H]8-OH-DPAT from rat hippocampal 5-hydroxytryptamine 1A receptor. Format: tissue-based, Hippocampus.

The target in experiment [2] is T2, Adrenergic receptor alpha-1 (Rattus norvegicus, UniProt P15823+P23944+P43140).
T2 sequence (P15823 whole entry): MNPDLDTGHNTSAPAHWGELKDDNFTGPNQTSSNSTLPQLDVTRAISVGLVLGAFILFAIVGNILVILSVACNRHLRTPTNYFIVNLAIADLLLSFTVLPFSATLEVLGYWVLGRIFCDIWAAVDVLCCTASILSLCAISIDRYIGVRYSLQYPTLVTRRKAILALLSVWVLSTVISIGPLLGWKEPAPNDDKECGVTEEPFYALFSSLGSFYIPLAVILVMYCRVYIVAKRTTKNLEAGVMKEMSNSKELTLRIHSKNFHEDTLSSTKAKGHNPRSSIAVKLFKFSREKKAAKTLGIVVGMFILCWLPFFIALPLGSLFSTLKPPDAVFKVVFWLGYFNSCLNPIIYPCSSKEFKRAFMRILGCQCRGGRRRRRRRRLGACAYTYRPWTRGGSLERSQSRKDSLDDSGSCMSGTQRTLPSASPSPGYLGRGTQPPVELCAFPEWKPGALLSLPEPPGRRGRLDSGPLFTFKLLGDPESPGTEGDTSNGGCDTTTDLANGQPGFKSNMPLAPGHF
T2 sequence (P23944 whole entry): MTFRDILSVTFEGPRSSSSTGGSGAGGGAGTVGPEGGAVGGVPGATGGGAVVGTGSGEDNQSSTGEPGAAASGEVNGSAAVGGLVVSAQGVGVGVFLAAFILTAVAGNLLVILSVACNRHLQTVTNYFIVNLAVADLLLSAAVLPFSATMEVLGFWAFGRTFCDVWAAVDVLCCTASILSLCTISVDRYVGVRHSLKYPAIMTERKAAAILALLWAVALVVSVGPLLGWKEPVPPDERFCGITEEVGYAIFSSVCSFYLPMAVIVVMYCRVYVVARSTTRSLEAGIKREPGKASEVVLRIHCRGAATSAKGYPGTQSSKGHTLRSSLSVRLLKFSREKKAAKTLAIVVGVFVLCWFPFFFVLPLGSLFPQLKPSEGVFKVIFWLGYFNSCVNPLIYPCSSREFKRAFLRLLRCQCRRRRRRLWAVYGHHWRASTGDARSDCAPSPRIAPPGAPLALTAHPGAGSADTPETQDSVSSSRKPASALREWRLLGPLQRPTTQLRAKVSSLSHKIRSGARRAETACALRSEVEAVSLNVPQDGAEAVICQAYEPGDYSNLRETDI
T2 sequence (P43140 whole entry): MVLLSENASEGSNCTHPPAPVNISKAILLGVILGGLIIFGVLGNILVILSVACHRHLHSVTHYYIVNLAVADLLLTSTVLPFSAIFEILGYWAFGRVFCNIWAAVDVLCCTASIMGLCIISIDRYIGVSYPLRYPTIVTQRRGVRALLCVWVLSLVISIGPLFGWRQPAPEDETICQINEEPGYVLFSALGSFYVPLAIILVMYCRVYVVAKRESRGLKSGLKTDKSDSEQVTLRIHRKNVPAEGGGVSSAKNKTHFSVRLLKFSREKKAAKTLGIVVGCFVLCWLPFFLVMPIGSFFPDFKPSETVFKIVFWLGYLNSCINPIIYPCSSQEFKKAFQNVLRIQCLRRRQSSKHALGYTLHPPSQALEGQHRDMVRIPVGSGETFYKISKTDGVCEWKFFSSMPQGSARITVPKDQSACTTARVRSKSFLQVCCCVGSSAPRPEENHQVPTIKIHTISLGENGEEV
The experiment in a line: In vitro radioligand binding assay on adrenaline Alpha-1 adrenergic receptor of rat cortex using [3H]- prazosin. Format: tissue-based.

A further experiment has as its target D(2) dopamine receptor (Rattus norvegicus, UniProt P61169). The experiment in a line: In vitro radioligand binding assay on Dopamine receptor D2 of rat striatum using [3H]- spiperone. Format: tissue-based.
Experiment [3] deals with T1, 5-hydroxytryptamine receptor 1A. The experiment in a line: In vitro radioligand binding assay on 5-hydroxytryptamine 1A receptor using [3H]8-OH-DPAT in rat hippocampus. In kind it is tissue-based.

Structures are written as SMILES. Values joined by “and” are separate entries in the source; they are usually repeats but may differ in a detail not shown here. Equal values may be shown once.

Chain of D(2) dopamine receptor (P61169 whole entry): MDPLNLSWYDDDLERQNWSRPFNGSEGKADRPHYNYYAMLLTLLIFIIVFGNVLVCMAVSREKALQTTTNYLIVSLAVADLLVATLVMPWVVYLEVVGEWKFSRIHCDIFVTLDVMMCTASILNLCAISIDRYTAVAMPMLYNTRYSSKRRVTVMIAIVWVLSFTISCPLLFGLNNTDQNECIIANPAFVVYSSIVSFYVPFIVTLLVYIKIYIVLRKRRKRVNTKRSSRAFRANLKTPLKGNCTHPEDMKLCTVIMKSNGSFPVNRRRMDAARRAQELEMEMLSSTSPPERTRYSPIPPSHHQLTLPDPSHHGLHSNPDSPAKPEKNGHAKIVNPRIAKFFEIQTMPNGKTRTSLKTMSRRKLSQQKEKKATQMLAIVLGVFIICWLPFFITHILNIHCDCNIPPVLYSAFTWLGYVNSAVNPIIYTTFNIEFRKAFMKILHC

As to `COc1ccc(CCCCNCCOc2ccc(F)c3c2OCCC3)cc1`, the Ki in experiment [1] stood at 0.051 nM; in experiment [2], 8.77 nM; at D(2) dopamine receptor, 3.53 nM.

In the case of `COc1ccc(CCCCNCCOc2cccc3c2OCCC3)cc1`, the Ki in experiment [1] worked out at 0.118 nM; in experiment [2], 5.19 nM; on D(2) dopamine receptor it was 0.581 nM.

Take `COc1ccc(CCCCNCCOc2cc(OC)cc3c2OCCC3)cc1`: the Ki in experiment [1] was 3.07 nM; in experiment [2], 27.9 nM; at D(2) dopamine receptor, 1.75 nM.

Take `COc1ccccc1N1CCN(C[C@@H](C(=O)NC(C)(C)C)c2ccccc2)CC1`: the IC50 in experiment [3] is 33.9 nM; in experiment [2] it was 1490 nM. Further, the Ki in experiment [1] came out at 27.9 nM; in experiment [2], 897 nM; on D(2) dopamine receptor it was 176 nM.

On to `COc1ccc(CCCCNCCOc2cc(O)cc3c2OCCC3)cc1`, for which the Ki in experiment [1] was 0.271 nM; in experiment [2] it was 98.4 nM; on D(2) dopamine receptor, 1.76 nM.

As for `O=C1C2C(C(=O)N1CCCCN1CCN(c3ncccn3)CC1)[C@H]1CC[C@@H]2C1` (some centres undefined), the Ki in experiment [1] was 21.5 nM and 25 nM; in experiment [2] it was 1260 nM.

Turning to `COc1ccc(CCCCNCCOc2cc(C)cc3c2OCCC3)cc1`, the values for the Ki (in experiment [1]; in experiment [2]; on D(2) dopamine receptor) were 0.779 nM, 35.1 nM and 1.79 nM, respectively.

Turning to `COc1ccc(CCCCNCCOc2c(F)ccc3c2OCCC3)cc1`, the values for the inhibitory constant (Ki) (in experiment [1]; in experiment [2]; on D(2) dopamine receptor) were 0.35 nM, 71.5 nM and 21.3 nM, respectively.

Turning to `COc1ccc(CCCCNCCOc2cc(Cl)cc3c2OCCC3)cc1`, the Ki in experiment [1] is 1.29 nM; in experiment [2], 14.3 nM; on D(2) dopamine receptor it was 0.489 nM.

Consider `CCCN(CCC)[C@H]1CCc2c(F)ccc(O)c2C1`, for which the Ki is 46 nM in experiment [1]; 6080 nM in experiment [2]; 614 nM and 400 nM on D(2) dopamine receptor.

Consider `COc1ccc(CCCCNCCOc2cc(F)cc3c2OCCC3)cc1`, for which the Ki in experiment [1] was 0.221 nM; in experiment [2] it was 2.71 nM; on D(2) dopamine receptor, 0.259 nM.
